Measurements from patent publication US11332475B2, “Optically active pyranochromenyl phenol derivative and pharmaceutical composition comprising same” (GLACEUM, INC., priority 2016, dated 2022).

How the values were obtained:
Assay type in all cases: in vivo
[1] = system: diet induced obesity (DIO) mouse; experiment: Anti-obesity effect (body weight change) in diet induced obesity (DIO) mouse; details: for Anti-obesity effect (%): % body weight change by Equation 1; for Anti-obesity activity compared with other isomer/racemate: result in words
Procedure: Specifically, a 5- to 6-week-old female C57BL/6J mouse (Jackson Lab., USA) were purchased and fed with only high-fat fodder for at least 11 weeks to produce a diet induced obesity (DIO) mouse. Samples were exactly taken from a control and the racemic compound, the R-enantiomer (Compound 2a) and the S-enantiomer (Compound 2b) in Example 1 according to the administration dose (0, 20, and 50 mg/kg) and put into Falcon tubes, 3 ml of a 0.5% aqueous methyl cellulose solution was added thereto, and the resulting mixture was gently mixed by means of a vortex mixer. Thereafter, the mixture was homogenized by using a homogenizer (30,000 rpm, Ultra-Turrax® T10 Basic, IKA) for 3 minutes while 1.5 ml of a 0.5% aqueous methyl cellulose solution was added thereto. The sample thus prepared was administered through the oral gavage once daily for 6 weeks by using a disposable plastic syringe. The body weight was measured once a week while the DIO mouse was bred in this manner.
Based on the data thus measured, the anti-obesity effect was calculated according to the following Equation 1. Anti-obesity effect (%)={(Body weight after compound is administered)−(Body weight before compound is administered)}/(Body weight before compound is administered))×100 [Equation 1]
For the anti-obesity efficacy of the R-enantiomer (Compound 3a) and the S-enantiomer (Compound 3b) of the optically active pyranochromenylphenol compound prepared in Example 2, an experiment was performed in the same manner as in Experimental Example 1.
Based on the data thus measured, the anti-obesity effect was calculated according to Equation 1.

C57BLKS/J-db/db mice [2] = experiment: Change in glycated hemoglobin of db/db mouse; details: average; for Glycated hemoglobin (HbAlc, %), before administration: 300 mg/kg group, before administration (baseline); for Glycated hemoglobin (HbAlc, %), 29th day after administration / Glycated hemoglobin (HbAlc, %), 43rd day after administration: 300 mg/kg
Procedure: (§1) Specifically, 5-week-old male C57BLKS/J-db/db mice (Central Lab. Animal Inc., Korea) were purchased and acclimatized for 2 weeks, and then used in the present experiment. The R-enantiomer (Compound 3a) and the S-enantiomer (Compound 3b) prepared in Example 2 were weighed (CP423S, Sartorius, Germany) according to the administration dose and put into 50 ml tubes, an excipient (10% LM 2125 CS MCT solution) stored at room temperature was added thereto, and then the resulting mixture was stirred by means of a vortex mixer so as to dissolve the excipient. Thereafter, the solution was ultrasonically treated for about 10 minutes, and a stock solution was prepared by formulating the solution at a predetermined concentration. A 0.5% aqueous MC solution as an excipient was added to the prepared stock solution, the resulting mixture was gently stirred by means of a vortex mixer, homogenized and prepared by means of a homogenizer (PT-1600E, Kinematica, Switzerland) at 30,000 rpm for 3 minutes, and then a solution was prepared at a final predetermined concentration by performing ultrasonic wave treatment for 30 minutes. The sample thus prepared was administered through the oral gavage once daily for 6 weeks by using a disposable plastic syringe with a zonde for oral administration attached.
By using the same method as in Experimental Example 3, a racemic compound of Compound 1, Compound 1a being an R-enantiomer, a racemic compound of Compound 3 prepared in Example 2 and Compound 3a being an R-enantiomer were administered to the C57BLKS/J-db/db mice, and then the anti-diabetes effects were confirmed.
The following Table 5 is a result of measuring a change in glycated hemoglobin of the db/db mouse according to the administration of the normal group, the negative control the racemic compound of Compound 1, Compound 1a being the R-enantiomer, the racemic Compound of Compound 3 prepared in Example 2 and Compound 3a being the R-enantiomer.

C57BLKS/J-db/db mice [3] = experiment: Glucose tolerance test in db/db mice; details: db/db mouse; for Blood sugar (mg/dl), 15 min after administration of glucose / Blood sugar (mg/dl), 30 min after administration of glucose / Blood sugar (mg/dl), 60 min after administration of glucose / Blood sugar (mg/dl), 120 min after administration of glucose / Blood sugar (mg/dl), 180 min after administration of glucose / Blood sugar (mg/dl), 240 min after administration of glucose / Blood sugar (mg/dl), 0 min after administration of glucose / AUC of blood sugar: 48th day, average; for Blood sugar (mg/dl), 15 min after administration of glucose / Blood sugar (mg/dl), 30 min after administration of glucose / Blood sugar (mg/dl), 60 min after administration of glucose / Blood sugar (mg/dl), 120 min after administration of glucose / Blood sugar (mg/dl), 180 min after administration of glucose / Blood sugar (mg/dl), 240 min after administration of glucose / Blood sugar (mg/dl), 0 min after administration of glucose: glucose 2 g/kg oral; for Blood sugar (mg/dl), 0 min after administration of glucose: before glucose; for AUC of blood sugar: glucose tolerance test 0-240 min, Phoenix WinNonlin
Procedure: as §1
While the C57BLKS/J-db/db mouse was bred, the mouse was fasted for 14 to 16 hours on the 48th day after administration, and then a glucose tolerance test was performed by orally administering glucose (Lot No: SLBM9269V, Sigma-Aldrich. USA) at a dose of 2 g/kg to the mice. Specifically, blood was collected from the caudal vein seven times in total including before the administration of glucose, at 15 minutes after the administration of glucose, at 30 minutes after the administration of glucose, at 60 minutes after the administration of glucose, at 120 minutes after the administration of glucose, at 180 minutes after the administration of glucose, and at 240 minutes after the administration of glucose. Thereafter, blood sugar was measured by using two blood sugar meters (AGM-4000, Allmedicus Inc., Korea), and then an average blood sugar was calculated by using each blood sugar measurement value. The area under the blood concentration-time curve (AUC) for the blood sugar value at each measurement time point was calculated by using a Phoenix WinNonlin program.

[4] = 50 mg/kg oral gavage once daily for 6 weeks
[5] = 200 mg/kg oral gavage once daily for 6 weeks

| SMILES | Anti-obesity effect (%) [1, 4] | Anti-obesity effect (%) [1, 5] | Glycated hemoglobin (HbAlc, %), before administration (C57BLKS/J-db/db mice [2]) | Glycated hemoglobin (HbAlc, %), 29th day after administration (C57BLKS/J-db/db mice [2]) | Glycated hemoglobin (HbAlc, %), 43rd day after administration (C57BLKS/J-db/db mice [2]) | Blood sugar (mg/dl), 15 min after administration of glucose (C57BLKS/J-db/db mice [3]; 100 mg/kg oral once daily) | Blood sugar (mg/dl), 30 min after administration of glucose (C57BLKS/J-db/db mice [3]; 100 mg/kg oral once daily) | Blood sugar (mg/dl), 60 min after administration of glucose (C57BLKS/J-db/db mice [3]; 100 mg/kg oral once daily) | Blood sugar (mg/dl), 120 min after administration of glucose (C57BLKS/J-db/db mice [3]; 100 mg/kg oral once daily) | Blood sugar (mg/dl), 180 min after administration of glucose (C57BLKS/J-db/db mice [3]; 100 mg/kg oral once daily) | Blood sugar (mg/dl), 240 min after administration of glucose (C57BLKS/J-db/db mice [3]; 100 mg/kg oral once daily) | Blood sugar (mg/dl), 0 min after administration of glucose (C57BLKS/J-db/db mice [3]; 100 mg/kg oral once daily) | AUC of blood sugar (C57BLKS/J-db/db mice [3]; 100 mg/kg oral once daily) | Anti-obesity activity compared with other isomer/racemate [1] | other results |
| --- | --- | --- | --- | --- | --- | --- | --- | --- | --- | --- | --- | --- | --- | --- | --- |
| CCOc1ccc(C2COc3c(ccc4c3CCC(C)(C)O4)C2)c(O)c1 (racemic) [Compound 2, 3-(2-hydroxy-4-ethoxyphenyl)-8,8-dimethyl-2,3,4,8,9,10-hexahydropyrano[2,3-f]chromene] | 2.29% |  |  |  |  |  |  |  |  |  |  |  |  |  | Anti-obesity effect (%) ([1]; 20 mg/kg oral gavage once daily for 6 weeks): 16.11% |
| CCOc1ccc([C@@H]2COc3c(ccc4c3CCC(C)(C)O4)C2)c(O)c1 [Compound 2a, (R)-3-(2-hydroxy-4-ethoxyphenyl)-8,8-dimethyl-2,3,4,8,9,10-hexahydropyrano[2,3-f]chromene] | 7.58% |  |  |  |  |  |  |  |  |  |  |  |  |  |  |
| CCCOc1ccc([C@@H]2COc3c(ccc4c3CCC(C)(C)O4)C2)c(O)c1 [Compound 3a, (R)-3-(2-hydroxy-4-propoxyphenyl)-8,8-dimethyl-2,3,4,8,9,10-hexahydropyrano[2,3-f]chromene] |  | −8.1% | 4.7% | 7.1% | 5.3% | 473 mg/dL | 527 mg/dL | 541 mg/dL | 200 mg/dL | 176 mg/dL | 184 mg/dL | 193 mg/dL | 526 mg/dL/min |  | Blood sugar (mg/dl), 15 min after administration of glucose (C57BLKS/J-db/db mice [3]; 150 mg/kg oral once daily): 440 mg/dL; Blood sugar (mg/dl), 30 min after administration of glucose (C57BLKS/J-db/db mice [3]; 150 mg/kg oral once daily): 469 mg/dL; Blood sugar (mg/dl), 60 min after administration of glucose (C57BLKS/J-db/db mice [3]; 150 mg/kg oral once daily): 460 mg/dL; Blood sugar (mg/dl), 120 min after administration of glucose (C57BLKS/J-db/db mice [3]; 150 mg/kg oral once daily): 234 mg/dL; Blood sugar (mg/dl), 180 min after administration of glucose (C57BLKS/J-db/db mice [3]; 150 mg/kg oral once daily): 153 mg/dL; Blood sugar (mg/dl), 240 min after administration of glucose (C57BLKS/J-db/db mice [3]; 150 mg/kg oral once daily): 163 mg/dL; Blood sugar (mg/dl), 0 min after administration of glucose (C57BLKS/J-db/db mice [3]; 150 mg/kg oral once daily): 175 mg/dL; AUC of blood sugar (C57BLKS/J-db/db mice [3]; 150 mg/kg oral once daily): 481 mg/dL/min; Blood sugar (mg/dl), 15 min after administration of glucose (C57BLKS/J-db/db mice [3]; 200 mg/kg oral once daily): 488 mg/dL; Blood sugar (mg/dl), 30 min after administration of glucose (C57BLKS/J-db/db mice [3]; 200 mg/kg oral once daily): 507 mg/dL; Blood sugar (mg/dl), 60 min after administration of glucose (C57BLKS/J-db/db mice [3]; 200 mg/kg oral once daily): 437 mg/dL; Blood sugar (mg/dl), 120 min after administration of glucose (C57BLKS/J-db/db mice [3]; 200 mg/kg oral once daily): 223 mg/dL; Blood sugar (mg/dl), 180 min after administration of glucose (C57BLKS/J-db/db mice [3]; 200 mg/kg oral once daily): 183 mg/dL; Blood sugar (mg/dl), 240 min after administration of glucose (C57BLKS/J-db/db mice [3]; 200 mg/kg oral once daily): 174 mg/dL; Blood sugar (mg/dl), 0 min after administration of glucose (C57BLKS/J-db/db mice [3]; 200 mg/kg oral once daily): 159 mg/dL; AUC of blood sugar (C57BLKS/J-db/db mice [3]; 200 mg/kg oral once daily): 501 mg/dL/min; Adjustment of blood sugar in glucose tolerance test, compared with other enantiomer (C57BLKS/J-db/db mice [3]; result in words): adjusted blood sugar well as compared to the S-enantiomer (Compound 3b) |
| CCOc1ccc([C@H]2COc3c(ccc4c3CCC(C)(C)O4)C2)c(O)c1 [Compound 2b, (S)-3-(2-hydroxy-4-ethoxyphenyl)-8,8-dimethyl-2,3,4,8,9,10-hexahydropyrano[2,3-f]chromene] | −10.99% |  |  |  |  |  |  |  |  |  |  |  |  | better effect of suppressing an increase in body weight than the racemic compound and Compound 2a |  |
| CCCOc1ccc([C@H]2COc3c(ccc4c3CCC(C)(C)O4)C2)c(O)c1 [Compound 3b, (S)-3-(2-hydroxy-4-propoxyphenyl)-8,8-dimethyl-2,3,4,8,9,10-hexahydropyrano[2,3-f]chromene] |  | −19.5% |  |  |  | 595 mg/dL | 616 mg/dL | 628 mg/dL | 472 mg/dL | 422 mg/dL | 397 mg/dL | 392 mg/dL | 782 mg/dL/min | better anti-obesity activity than Compound 3a | Body weight of the mouse after administration for 6 weeks ([1]; 6 weeks, FIG. 4, result in words): close to the body weight of the normal mouse |
| CCCOc1ccc(C2COc3c(ccc4c3CCC(C)(C)O4)C2)c(O)c1 (racemic) [Compound 3, 3-(2-hydroxy-4-propoxyphenyl)-8,8-dimethyl-2,3,4,8,9,10-hexahydropyrano[2,3-f]chromene] |  |  | 4.7% | 6.7% | 6.2% |  |  |  |  |  |  |  |  |  |  |
